Measurements from DBAASP.
≈ marks a conversion by molar mass, not a printed value.

Assays:
Assay in all cases: ≥ marks a high value that may be exact or a test limit, other limits are often not marked, values filed in µg/mL are converted to µM
Staphylococcus aureus = test system: Staphylococcus aureus
Staphylococcus aureus MR = test system: Staphylococcus aureus MR
Escherichia coli = test system: Escherichia coli
Pseudomonas aeruginosa = test system: Pseudomonas aeruginosa
[1] = test system: Staphylococcus aureus ATCC 25923
[2] = test system: Escherichia coli ATCC 25726
[3] = test system: Pseudomonas aeruginosa CMCCB 10104
[4] = test system: Escherichia coli ATCC 25922
[5] = test system: Candida albicans ATCC 2002
Listeria innocua = test system: Listeria innocua
Pasteurella multocida = test system: Pasteurella multocida
Streptococcus uberis = test system: Streptococcus uberis
Leuconostoc lactis = test system: Leuconostoc lactis
[6] = test system: Staphylococcus epidermidis
Bacillus cereus = test system: Bacillus cereus
Micrococcus luteus = test system: Micrococcus luteus
[7] = test system: Staphylococcus aureus ATCC 2592

Row | SMILES | MIC (Staphylococcus aureus) | MIC (Escherichia coli) | MIC [1] | MIC [3] | MIC [4] | MIC [5] | other results
1 | CC[C@H](C)[C@H](NC(=O)[C@H](C)NC(=O)[C@H](CC(C)C)NC(=O)[C@H](CS)NC(=O)[C@H](Cc1cnc[nH]1)NC(=O)[C@H](C)N)C(=O)NCC(=O)N[C@@H](CCCN=C(N)N)C(=O)N[C@@H](CCCCN)C(N)=O [AHCLAIGRK] | 25.8 µM | 25.8 µM |  |  |  |  | MIC (Staphylococcus aureus MR): ≥ 51.6 µM; MIC (Pseudomonas aeruginosa): > 51.6 µM
2 | CC[C@H](C)[C@H](NC(=O)[C@H](CCSC)NC(=O)[C@H](C)NC(=O)[C@H](CC(N)=O)NC(=O)[C@H](CCCCN)NC(=O)[C@H](Cc1ccccc1)NC(=O)[C@H](CO)NC(=O)[C@H](CC(=O)O)NC(=O)[C@H](CC(C)C)NC(=O)[C@H](Cc1ccccc1)NC(=O)CN)C(=O)NCC(=O)N[C@H](C(=O)N[C@@H](C)C(=O)N[C@@H](CCCCN)C(=O)N[C@@H](CO)C(=O)N[C@H](C(=O)NCC(=O)N[C@@H](CCCCN)C(=O)N[C@H](C(=O)N[C@@H](C)C(=O)N[C@@H](CC(C)C)C(=O)N[C@@H](CO)C(=O)N[C@H](C(=O)N[C@@H](CC(C)C)C(=O)N[C@@H](C)C(=O)N[C@H]1CSSC[C@@H](C(=O)O)NC(=O)[C@H](CO)NC(=O)[C@H](CCCCN)NC(=O)[C@H](CC(=O)O)NC(=O)[C@H]([C@@H](C)CC)NC(=O)[C@H](CCCCN)NC1=O)[C@@H](C)O)[C@@H](C)O)C(C)C)C(C)C [GFLDSFKNAMIGVAKSVGKTALSTLACKIDKSC] |  |  | 36.7 µM (≈ 125 µg/mL) |  |  |  | MIC [2]: 18.4 µM (≈ 62.5 µg/mL)
3 | CC[C@H](C)[C@H](NC(=O)CN)C(=O)N[C@@H](CC(C)C)C(=O)N[C@@H](CO)C(=O)NCC(=O)N[C@H](C(=O)N[C@@H](CC(C)C)C(=O)NCC(=O)N[C@@H](CCSC)C(=O)NCC(=O)N[C@@H](CCCCN)C(=O)N[C@@H](CCCCN)C(=O)N[C@H](C(=O)N[C@H](C(=O)N[C@H]1CSSC[C@@H](C(=O)O)NC(=O)[C@H](CC(C)C)NC(=O)CNC(=O)[C@H](CCCN=C(N)N)NC(=O)[C@H](CC(C)C)NC(=O)CNC1=O)C(C)C)[C@@H](C)CC)C(C)C [GILSGVLGMGKKIVCGLRGLC] |  |  | 1.74 µM (≈ 3.6 µg/mL) | 6.84 µM (≈ 14.2 µg/mL) | 3.47 µM (≈ 7.19 µg/mL) | 3.47 µM (≈ 7.19 µg/mL) | 
4 | CC[C@H](C)[C@H](NC(=O)CNC(=O)[C@H](CCCCN)NC(=O)CNC(=O)[C@H](C)NC(=O)[C@H](Cc1ccccc1)NC(=O)[C@H](CCCCN)NC(=O)[C@H](CO)NC(=O)[C@H](Cc1ccccc1)NC(=O)[C@H](CC(C)C)NC(=O)CN)C(=O)N[C@@H](CCCCN)C(=O)N[C@@H](CC(N)=O)C(=O)N[C@@H](Cc1ccccc1)C(=O)N[C@@H](CC(C)C)C(=O)N[C@@H](CC(N)=O)C(=O)N[C@@H](CCCCN)C(=O)NCC(=O)N[C@H](C(=O)N[C@@H](CCCCN)C(=O)N[C@@H](Cc1cnc[nH]1)C(=O)N[C@H](C(=O)NCC(=O)N[C@@H](CCCCN)C(=O)N[C@@H](CCC(=O)O)C(=O)O)[C@@H](C)CC)C(C)C [GLFSKFAGKGIKNFLNKGVKHIGKE] |  |  | 1.55 µM (≈ 4.2 µg/mL) | 0.773 µM (≈ 2.1 µg/mL) | 1.55 µM (≈ 4.2 µg/mL) | 0.773 µM (≈ 2.1 µg/mL) | 
5 | CC[C@H](C)[C@H](NC(=O)[C@@H](NC(=O)CNC(=O)[C@@H](NC(=O)[C@@H](NC(=O)[C@H](Cc1cnc[nH]1)NC(=O)[C@@H]1CCCN1C(=O)[C@H](CC(C)C)NC(=O)[C@@H](NC(=O)[C@H](Cc1cnc[nH]1)NC(=O)[C@H](CCCCN)NC(=O)[C@H](C)NC(=O)[C@@H](NC(=O)[C@H](CO)NC(=O)CNC(=O)[C@H](CC(C)C)NC(=O)[C@@H](NC(=O)[C@H](CO)NC(=O)[C@H](CC(C)C)NC(=O)[C@H](CC(C)C)NC(=O)CN)C(C)C)C(C)C)C(C)C)C(C)C)C(C)C)C(C)C)C(=O)N[C@@H](C)C(=O)N[C@@H](CCC(=O)O)C(=O)N[C@@H](Cc1cnc[nH]1)C(=O)N[C@@H](CC(C)C)C(N)=O [GLLSVLGSVAKHVLPHVVGVIAEHL] | 9.82 µM (≈ 25 µg/mL) | > 39.3 µM |  |  |  |  | MIC (Listeria innocua): 9.82 µM (≈ 25 µg/mL); MIC (Pasteurella multocida): 19.6 µM (≈ 50 µg/mL); MIC (Streptococcus uberis): 9.82 µM (≈ 25 µg/mL); MIC (Leuconostoc lactis): 4.91 µM (≈ 12.5 µg/mL); MIC [6]: ≥ 39.3 µM; MIC (Bacillus cereus): ≥ 39.3 µM; MIC (Micrococcus luteus): 4.91 µM (≈ 12.5 µg/mL)
6 | CC[C@H](C)[C@H](NC(=O)[C@@H](NC(=O)CN)C(C)C)C(=O)N[C@@H](CC(=O)O)C(=O)N[C@@H](C)C(=O)N[C@@H](C)C(=O)N[C@@H](CCCCN)C(=O)N[C@@H](CCCCN)C(=O)N[C@H](C(=O)N[C@H](C(=O)N[C@@H](CC(N)=O)C(=O)N[C@H](C(=O)N[C@@H](CC(C)C)C(=O)N[C@@H](CCCCN)C(=O)N[C@@H](CC(N)=O)C(=O)N[C@@H](CC(C)C)C(=O)N1CCC[C@H]1C(N)=O)C(C)C)C(C)C)C(C)C [GVIDAAKKVVNVLKNLP] | 14.1 µM (≈ 25 µg/mL) | > 56.2 µM |  |  |  |  | MIC (Listeria innocua): 28.1 µM (≈ 50 µg/mL); MIC (Pasteurella multocida): ≥ 56.2 µM; MIC (Streptococcus uberis): 7.03 µM (≈ 12.5 µg/mL); MIC (Leuconostoc lactis): 1.69 µM (≈ 3 µg/mL); MIC [6]: 7.03 µM (≈ 12.5 µg/mL); MIC (Bacillus cereus): 14.1 µM (≈ 25 µg/mL); MIC (Micrococcus luteus): 14.1 µM (≈ 25 µg/mL)
7 | CC[C@H](C)[C@H](NC(=O)[C@H](CCCCN)NC(=O)[C@H](CO)NC(=O)[C@H](C)NC(=O)[C@H](Cc1c[nH]c2ccccc12)NC(=O)CN)C(=O)NCC(=O)N[C@@H](CCC(N)=O)C(=O)N[C@H](C(=O)N[C@@H](CC(C)C)C(=O)NCC(=O)N[C@@H](CCCCN)C(=O)N[C@@H](CCSC)C(=O)N[C@@H](C)C(=O)N[C@@H](CCCCN)C(=O)N[C@H](C(=O)NCC(=O)N[C@@H](CC(C)C)C(=O)N[C@@H](CCC(N)=O)C(=O)N[C@@H](CCC(=O)O)C(=O)N[C@@H](CC(C)C)C(=O)N[C@H](C(=O)N[C@@H](CCC(N)=O)C(=O)N1CCC[C@H]1C(=O)N[C@@H](CCCCN)C(=O)O)[C@@H](C)CC)C(C)C)[C@@H](C)O [GWASKIGQTLGKMAKVGLQELIQPK] |  |  | 50 µM (≈ 134 µg/mL) |  |  |  | MIC [2]: ≥ 50 µM
8 | CC[C@H](C)[C@H](N)C(=O)N[C@@H](CC(C)C)C(=O)NCC(=O)N1CCC[C@H]1C(=O)N[C@H](C(=O)N[C@H](C(=O)N[C@@H](CO)C(=O)N[C@@H](CCCCN)C(=O)N[C@H](C(=O)NCC(=O)NCC(=O)N[C@H](C(=O)N[C@@H](CC(C)C)C(=O)NCC(=O)NCC(=O)N[C@@H](CC(C)C)C(=O)N[C@@H](CC(C)C)C(=O)N[C@@H](CCCCN)C(=O)N[C@@H](CC(N)=O)C(=O)N[C@@H](CC(C)C)C(N)=O)C(C)C)[C@@H](C)CC)[C@@H](C)CC)C(C)C [ILGPVISKIGGVLGGLLKNL] |  |  |  | 6.12 µM (≈ 12 µg/mL) | 6.12 µM (≈ 12 µg/mL) | 3.06 µM (≈ 6 µg/mL) | MIC [7]: 3.06 µM (≈ 6 µg/mL)
9 | CC(C)C[C@@H]1NC(=O)[C@H](CCCN=C(N)N)NC(=O)[C@H](CC(C)C)NC(=O)[C@H](CC(C)C)NC(=O)[C@H](Cc2c[nH]c3ccccc23)NC(=O)[C@H](C(C)C)NC(=O)[C@H](Cc2ccc(O)cc2)NC(=O)[C@H](CC(C)C)NC(=O)[C@H](C(C)C)NC(=O)[C@H](CCC(N)=O)NC(=O)[C@@H](NC(=O)[C@H](Cc2ccccc2)NC(=O)[C@H](CC(N)=O)NC(=O)[C@H](CC(N)=O)NC(=O)[C@@H](N)CCCCN)CSSC[C@@H](C(=O)N[C@@H](Cc2ccccc2)C(=O)N[C@H](C(=O)N[C@@H](CCCCN)C(=O)N[C@@H](Cc2ccccc2)C(=O)N[C@@H](CO)C(=O)N[C@@H](CCCCN)C(=O)N[C@@H](CC(=O)O)C(=O)N[C@H](C(=O)N[C@@H](CCC(=O)O)C(=O)N[C@H](C(=O)O)[C@@H](C)O)C(C)C)C(C)C)NC(=O)[C@H](CCC(N)=O)NC(=O)[C@H](CCCCN)NC(=O)CNC1=O [KNNFCQVLYVWLLRLGKQCFVKFSKDVET] |  |  | > 28.5 µM | 28.5 µM (≈ 99.9 µg/mL) | > 28.5 µM | 28.5 µM (≈ 99.9 µg/mL) | 
10 | CC[C@H](C)[C@H](NC(=O)[C@H](CC(C)C)NC(=O)[C@H](CC(C)C)NC(=O)[C@H](CC(=O)O)NC(=O)[C@H](CCCCN)NC(=O)[C@@H](NC(=O)[C@@H](NC(=O)CNC(=O)[C@H](CCSC)NC(=O)[C@@H](NC(=O)[C@@H](N)CO)C(C)C)[C@@H](C)O)C(C)C)C(=O)NCC(=O)N[C@@H](C)C(=O)NCC(=O)N[C@@H](CCCCN)C(=O)N[C@@H](CO)C(=O)N[C@@H](C)C(=O)N[C@@H](C)C(=O)N[C@@H](CCC(N)=O)C(=O)N[C@@H](CO)C(=O)N[C@H](C(=O)N[C@@H](CC(C)C)C(=O)N[C@@H](CCCCN)C(=O)N[C@@H](CO)C(=O)N[C@@H](CC(C)C)C(=O)N[C@@H](CO)C(=O)N[C@H]1CSSC[C@@H](C(=O)O)NC(=O)[C@H](CC(=O)O)NC(=O)[C@H](CC(N)=O)NC(=O)[C@H](CO)NC(=O)[C@H](CC(C)C)NC(=O)[C@H](CCCCN)NC1=O)C(C)C [SVMGTVKDLLIGAGKSAAQSVLKSLSCKLSNDC] |  |  | 0.993 µM (≈ 3.3 µg/mL) | 1.99 µM (≈ 6.6 µg/mL) | 1.99 µM (≈ 6.6 µg/mL) | 0.993 µM (≈ 3.3 µg/mL) | 
